# Source: US20160166536A1, “COMBINATION THERAPY FOR THE TREATMENT OF CANCER” (NORTHWESTERN UNIVERSITY, priority 2014, published 2016)
# Assays:
# Assay type in all cases: cell-based
# [1] = system: HS-578T cells; assay: MTS proliferation assay, HS-578T cells on TCPS; settings: 300 nM CYC065 alone, 5 nM Eribulin alone or their combination, 48 h, FIG. 2B
# Description: (§1) The ability of a composition including Eribulin and CYC065 to inhibit inhibiting tumor cell proliferation of triple-negative breast cancer cells was evaluated in three different cell lines having the triple-negative phenotype: MDA-MB-231 (FIG. 2A), […] (FIG. 2B) and MDA-MB-436 (FIG. 2C). The cells were seeded on tissue culture plates and cultured for ˜18 h. The cells were then contacted with 300 nM CYC065 alone, 5 nM Eribulin alone or a combination of 300 nM CYC065 and 5 nM Eribulin for 48 h.
# (§2) MDA-MB-231, HS-578T and MDA-MB-436 cells lines were seeded on TCPS at 5000 cells/well and cultured for ˜18 h. They were then treated with 300 nM CYC065 and 5 nM Eribulin or their combination for 48 h. Proliferation was quantified using the MTS assay. […] (N≧4 for all groups.) Data was analyzed using one-way ANOVA and comparison between groups post ANOVA was performed using Tukey HSD test.
# [2] = system: MDA-MB-436 cells; assay: MTS proliferation assay, MDA-MB-436 cells on TCPS; settings: 300 nM CYC065 alone, 5 nM Eribulin alone or their combination, 48 h, FIG. 2C
# Description: as §1, §2
# [3] = system: MDA-MB-231 cells; assay: MTS proliferation assay, MDA-MB-231 cells on tissue culture plates (2D TCPS); settings: 48 h
# Description: To evaluate the effectiveness of Eribulin and CYC065 in inhibiting tumor cell proliferation of triple-negative breast cancer cells, the breast cancer cell line MDA-MB-231 having the triple-negative phenotype was tested. MDA-MB-231 cells were seeded on tissue culture plates and cultured for ˜18 h. Cells were treated with different doses of either drug [Eribulin (0.1 nM-100 nM); CYC065 (50 nM-1000 nM)] for 48 h. Proliferation was quantified using the MTS assay.
# as §1
# MDA-MB-231 cells were seeded on 2D TCPS at 5000 cells/well and cultured for ˜18 h. […] Proliferation was quantified using the MTS assay.
# MDA-MB-231, HS-578T and MDA-MB-436 cells lines were seeded on TCPS at 5000 cells/well and cultured for ˜18 h. […] Proliferation was quantified using the MTS assay. […] (N≧4 for all groups.) Data was analyzed using one-way ANOVA and comparison between groups post ANOVA was performed using Tukey HSD test.
smiles,measurement,setting,value
"C=C1C[C@@H]2CC[C@@]34C[C@H]5O[C@H]6[C@@H](O3)[C@H]3O[C@H](CC[C@@H]3O[C@H]6[C@H]5O4)CC(=O)C[C@@H]3[C@@H](OC)[C@@H](C[C@H](O)CN)O[C@H]3C[C@H]3O[C@@H](CC[C@@H]1O2)C[C@@H](C)C3=C [Eribulin, 2-(3-Amino-2-hydroxypropyl)hexacosahydro-3-methoxy-26-methyl-20,27-bis(methylene)11,15-18,21-24,28-triepoxy-7,9-ethano-12,15-methano-9H,15H-furo(3,2-i)furo(2′,3′-5,6) pyrano(4,3-b)(1,4)dioxacyclopentacosin-5-(4H)-one]",inhibition of tumor cell proliferation,[1],inhibited tumor cell proliferation
same,inhibition of tumor cell proliferation,[2],inhibited tumor cell proliferation
same,inhibition of tumor cell proliferation,"[3]; 300 nM CYC065 alone, 5 nM Eribulin alone or their combination, FIG. 2A",inhibited tumor cell proliferation
same,"inhibition of cell proliferation, dose response","[3]; Eribulin 0.1 nM-100 nM, CYC065 50 nM-1000 nM, FIGS. 1A, 1B",inhibit proliferation in the nM range
